Results: US8569338B2, “Methods of using 4, 5, 6, 7-tetrahydroimidazo-[4,5-c]pyridine compounds” (Proximagen Ltd., priority 2008, dated 2013)

Molecular target: purified recombinantly expressed human SSAO (Homo sapiens (Human), UniProt Q16853)
Test: SSAO enzyme inhibition assay (HRP-coupled Amplex Red, benzylamine substrate)
Assay type: biochemical
Conditions: benzylamine 100 μM, approximately 60 minutes pre-incubation, pH 7.4, room temperature
Description: Biological Assay of the SSAO Enzyme Inhibitors
All assays were performed in room temperature with purified recombinantly expressed human SSAO. Enzyme was prepared essentially as described in Ohman et al. (Protein Expression and Purification 2006, 46, 321-331). The enzyme activity was measured with benzylamine as substrate and utilized the production of hydrogen peroxide for detection. In a horseradish peroxidise (HRP) coupled reaction, hydrogen peroxide oxidation of 10-acetyl-3,7-dihydroxyphenoxazine produced resorufin, which is a highly fluorescent compound (Zhout and Panchuk-Voloshina. Analytical Biochemistry 1997, 253, 169-174; Amplex® Red Hydrogen Peroxide/peroxidise Assay kit, Invitrogen A22188).
Briefly, test compounds were dissolved in dimethyl sulfoxide (DMSO) to a concentration of 10 mM. Dose-response measurements were assayed by either creating 1:10 serial dilutions in DMSO to produce a 7 point curve or by making 1:3 serial dilutions in DMSO to produce 11 point curves. The top concentrations were adjusted depending on the potency of the compounds and subsequent dilution in reaction buffer (50 mM sodium phosphate, pH 7.4) yielded a final DMSO concentration≦2%. Enzyme and compounds were set to pre-incubate in flat-bottomed microtiter plates for approximately 60 minutes before initiating the reaction by addition of a mixture of HRP, benzylamine and Amplex reagent. Fluorescence intensity was then measured at several time points (15 minutes, 20 minutes and 30 minutes) exciting at 544 nm and reading the emission at 590 nm). Final concentrations of the reagents in the assay wells were: SSAO enzyme 2 μg/ml, benzylamine 100 μM, Amplex reagent 20 μM, HRP 0.1 U/mL and varying concentrations of test compound. The inhibition was measured as % decrease of the signal compared to a control without inhibitor (only diluted DMSO). The background signal from a sample containing no SSAO enzyme was subtracted from all data points. Data was fitted to a four parameter logistic model and IC50 values were calculated using the GraphPad Prism 4 or XLfit 4 programs.

purified recombinantly expressed human SSAO, sequence (Q16853 29-763): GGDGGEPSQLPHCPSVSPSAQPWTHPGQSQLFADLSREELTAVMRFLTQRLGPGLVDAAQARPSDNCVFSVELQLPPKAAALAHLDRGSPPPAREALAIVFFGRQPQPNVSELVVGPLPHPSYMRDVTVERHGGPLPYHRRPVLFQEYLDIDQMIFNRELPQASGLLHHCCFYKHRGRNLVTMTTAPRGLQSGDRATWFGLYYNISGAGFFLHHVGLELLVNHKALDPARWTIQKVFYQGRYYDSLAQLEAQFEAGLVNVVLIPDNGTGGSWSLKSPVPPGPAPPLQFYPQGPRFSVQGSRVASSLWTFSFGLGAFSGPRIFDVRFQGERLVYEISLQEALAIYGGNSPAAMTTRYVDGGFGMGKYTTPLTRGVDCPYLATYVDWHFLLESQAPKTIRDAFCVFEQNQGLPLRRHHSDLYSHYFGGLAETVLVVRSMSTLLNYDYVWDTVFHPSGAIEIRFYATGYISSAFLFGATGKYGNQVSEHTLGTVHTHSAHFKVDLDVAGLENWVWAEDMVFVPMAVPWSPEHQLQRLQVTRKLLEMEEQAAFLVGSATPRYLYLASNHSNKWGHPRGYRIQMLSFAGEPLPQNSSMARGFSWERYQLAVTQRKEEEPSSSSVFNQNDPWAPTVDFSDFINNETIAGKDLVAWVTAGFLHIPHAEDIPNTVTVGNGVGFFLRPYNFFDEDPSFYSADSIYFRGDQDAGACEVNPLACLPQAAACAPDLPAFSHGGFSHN

In order of falling IC50:
1. CC(C)C1c2[nH]cnc2CCN1C(=O)OCC1CCOC1 (stereo not drawn) [Example 17, Tetrahydrofuran-3-ylmethyl 4-isopropyl-1,4,6,7-tetrahydro-5H-imidazo[4,5-c]-pyridine-5-carboxylate]  91 nM
2. CC(C)C1c2[nH]cnc2CCN1C(=O)OCCOc1ccccc1 (stereo not drawn) [Example 14, 2-Phenoxyethyl 4-isopropyl-1,4,6,7-tetrahydro-5H-imidazo[4,5-c]pyridine-5-carboxylate]  48 nM
3. CC(C)C1c2[nH]cnc2CCN1C(=O)OCc1cccnc1 (stereo not drawn) [Example 7, Pyridin-3-ylmethyl 4-isopropyl-1,4,6,7-tetrahydro-5H-imidazo[4,5-c]pyridine-5-carboxylate]  34 nM
